Holding throughout (format): functional, cell-based
One assay relates to MCF7. As to the kind of experiment: Antiproliferative activity against human MCF7 cells assessed as reduction in cell viability incubated for 48 hrs by MTS assay. As to conditions: MCF7, 48 h. For orientation: Tetrazolium assays rely on reduction of a dye to a coloured formazan, in cell work by metabolically active cells.
Another assay has as its system HL-60. The assay can be described thus: Antiproliferative activity against human HL60 cells assessed as reduction in cell viability incubated for 48 hrs by MTS assay. As to conditions: HL-60, 48 h.
The next assay relates to SW480. As to the kind of experiment: Antiproliferative activity against human SW480 cells assessed as reduction in cell viability incubated for 48 hrs by MTS assay. The settings on record: SW480, 48 h.
In a further assay the test system is SMMC-7721. The assay can be described thus: Antiproliferative activity against human SMMC7721 cells assessed as reduction in cell viability incubated for 48 hrs by MTS assay. The settings on record: SMMC-7721, 48 h.
A further assay relates to A549. As to the kind of experiment: Antiproliferative activity against human A549 cells assessed as reduction in cell viability incubated for 48 hrs by MTS assay. The settings on record: A549, 48 h.

pIC50: −log10 of the molar value. Where only a bound is given, the exact number is not on record here.

A word on the pIC50: it is the negative decadic logarithm of the IC50, by convention in mol/L.

For the compound `C[C@]12CC[C@H]3[C@@H](CC=C4C[C@@H](O)CC[C@@]43C)[C@@H]1CC[C@@H]2n1ccnc1`, the pIC50 in the assay with MCF7, in the assay on HL-60, in the assay with SW480, with SMMC-7721 and with A549 was less than 4.70 in each case.
As for `C[C@@H]1CC[C@@]2(OC1)O[C@H]1C[C@H]3[C@@H]4C[C@H](n5cc[n+](Cc6ccc7ccccc7c6)c5)[C@]56C[C@H]5CC[C@]6(C)[C@H]4CC[C@]3(C)[C@H]1[C@@H]2C`, the pIC50 with MCF7 is 5.71; in the assay on HL-60, 5.91; with SW480, 5.39; in the assay with SMMC-7721, 5.61; with A549 it was 5.31.
Consider `C[C@@H]1CC[C@@]2(OC1)O[C@H]1C[C@H]3[C@@H]4CC=C5C[C@@H](n6cc[n+](CC(=O)c7ccccc7)c6)CC[C@]5(C)[C@H]4CC[C@]3(C)[C@H]1[C@@H]2C`, for which the negative logarithm of the IC50 (pIC50) is 5.25 in the assay with MCF7; 5.93 with HL-60; 5.10 in the assay on SW480; 5.67 in the assay with SMMC-7721; 5.73 in the assay on A549.
For `Cc1cc2c(cc1C)[n+](Cc1ccccc1Br)cn2[C@@H]1CC[C@@]2(C)C(=CC[C@H]3[C@@H]4CC[C@H]([C@H](C)CCCC(C)C)[C@@]4(C)CC[C@@H]32)C1`, the pIC50 with MCF7 is 4.85; in the assay with HL-60, 5.16; with SW480 it was 4.88; in the assay with SMMC-7721, 5.74; with A549, 5.07.
Consider `CC(=O)O[C@H]1CC[C@@]2(C)C(=CC[C@H]3[C@@H]4CC[C@H](n5cc[n+](CC(=O)c6cccc(Br)c6)c5)[C@@]4(C)CC[C@@H]32)C1`, for which the pIC50 was 5.31 in the assay with MCF7; 5.36 in the assay with HL-60; 5.14 in the assay on SW480; 5.26 with SMMC-7721; 5.14 with A549.
As for `c1c[nH]cn1` [IMIDAZOLE], the pIC50 with MCF7, with HL-60, with SW480, in the assay with SMMC-7721 and in the assay on A549 was less than 4.70 throughout.
`CC(C)CCC[C@@H](C)[C@H]1CC[C@H]2[C@@H]3CC=C4C[C@@H](n5cc[n+](Cc6ccc7ccccc7c6)c5)CC[C@]4(C)[C@H]3CC[C@]12C`: the negative-log IC50 (pIC50) in the assay with MCF7 is 5.08; in the assay with HL-60, 5.27; in the assay on SW480, 5.03; with SMMC-7721, 5.85; in the assay with A549 it was 5.16.
The matching figures for `CC(C)CCC[C@@H](C)[C@H]1CC[C@H]2[C@@H]3CC=C4C[C@H](n5cc[n+](Cc6ccccc6Br)c5)CC[C@]4(C)[C@H]3CC[C@]12C`: 5.22, 5.80, 5.08, 6.03 and 5.13.
The matching figures for `CC(C)CCC[C@@H](C)[C@H]1CC[C@H]2[C@@H]3CC=C4C[C@@H](n5cc[n+](CC(=O)c6ccc7ccccc7c6)c5)CC[C@]4(C)[C@H]3CC[C@]12C`: less than 4.70, 5.14, 4.95, 5.68 and 5.02.
For `C[C@@H]1CC[C@@]2(OC1)O[C@H]1C[C@H]3[C@@H]4CC=C5C[C@H](n6c[n+](CC(=O)c7ccc8ccccc8c7)c7ccccc76)CC[C@]5(C)[C@H]4CC[C@]3(C)[C@H]1[C@@H]2C`, in that order: 5.78, 5.96, 5.76, 5.88 and 5.88.
In the case of `Cc1cc2c(cc1C)[n+](CC(=O)c1ccccc1)cn2[C@@H]1CC[C@@]2(C)C(=CC[C@H]3[C@@H]4C[C@@H]5O[C@]6(CC[C@@H](C)CO6)[C@@H](C)[C@@H]5[C@@]4(C)CC[C@@H]32)C1`, the negative-log IC50 (pIC50) in the assay on MCF7 is 5.54; in the assay with HL-60, 6.36; with SW480 it was 5.49; in the assay on SMMC-7721, 6.05; with A549, 5.02.
The matching figures for `CC(C)CCC[C@@H](C)[C@H]1CC[C@H]2[C@@H]3CC=C4C[C@@H](n5cc[n+](Cc6ccccc6Br)c5)CC[C@]4(C)[C@H]3CC[C@]12C`: 5.12, 5.63, 5.11, 5.84 and 5.09.
The matching figures for `C[C@@H]1CC[C@@]2(OC1)O[C@H]1C[C@H]3[C@@H]4C[C@H](n5cc[n+](CC(=O)c6ccc7ccccc7c6)c5)[C@]56C[C@H]5CC[C@]6(C)[C@H]4CC[C@]3(C)[C@H]1[C@@H]2C`: 5.65, 5.99, 5.40, 5.46 and 5.14.
Turning to `CC(=O)O[C@H]1CC[C@@]2(C)C(=CC[C@H]3[C@@H]4CC[C@H](n5ccnc5)[C@@]4(C)CC[C@@H]32)C1`, the pIC50 in the assay with MCF7, in the assay with HL-60, in the assay on SW480, in the assay on SMMC-7721 and in the assay with A549 was less than 4.70 throughout.
As to `C[C@@H]1CC[C@@]2(OC1)O[C@H]1C[C@H]3[C@@H]4CC=C5C[C@H](n6cc[n+](CC(=O)c7cccc(Br)c7)c6)CC[C@]5(C)[C@H]4CC[C@]3(C)[C@H]1[C@@H]2C`, the negative-log IC50 (pIC50) with MCF7 was 5.84; in the assay on HL-60, 5.90; in the assay with SW480 it was 5.78; in the assay on SMMC-7721, 5.77; in the assay on A549, 5.81.
For `CC(C)CCC[C@@H](C)[C@H]1CC[C@H]2[C@@H]3CC=C4C[C@H](n5c[n+](Cc6ccccc6Br)c6ccccc65)CC[C@]4(C)[C@H]3CC[C@]12C`, in that order: 5.05, 5.35, 4.97, 5.81 and 5.14.
With `COc1ccc(C(=O)C[n+]2ccn([C@@H]3CC[C@@]4(C)C(=CC[C@H]5[C@@H]6C[C@@H]7O[C@]8(CC[C@@H](C)CO8)[C@@H](C)[C@@H]7[C@@]6(C)CC[C@@H]54)C3)c2)cc1`, the pIC50 is 5.83 with MCF7; 5.90 with HL-60; 5.59 in the assay with SW480; 5.82 with SMMC-7721; 5.71 with A549.
For `CC(=O)O[C@H]1CC[C@@]2(C)C(=CC[C@H]3[C@@H]4CC[C@H](n5cc[n+](Cc6ccccc6Br)c5)[C@@]4(C)CC[C@@H]32)C1`, in that order: 5.32, 5.83, 5.16, 5.42 and 5.19.
The matching figures for `COc1ccc(C(=O)C[n+]2cn([C@@H]3CC[C@@]4(C)C(=CC[C@H]5[C@@H]6CC[C@H]([C@H](C)CCCC(C)C)[C@@]6(C)CC[C@@H]54)C3)c3ccccc32)cc1`: 5.01, 5.36, 5.00, 5.84 and 5.12.
For `C[C@@H]1CC[C@@]2(OC1)O[C@H]1C[C@H]3[C@@H]4CC=C5C[C@H](n6cc[n+](CC(=O)c7ccc8ccccc8c7)c6)CC[C@]5(C)[C@H]4CC[C@]3(C)[C@H]1[C@@H]2C`, in that order: 5.64, 6.02, 5.44, 5.72 and 5.48.
For `COc1ccc(C(=O)C[n+]2ccn([C@H]3C[C@H]4[C@@H]5C[C@@H]6O[C@]7(CC[C@@H](C)CO7)[C@@H](C)[C@@H]6[C@@]5(C)CC[C@@H]4[C@@]4(C)CC[C@@H]5C[C@]534)c2)cc1`, the negative-log IC50 (pIC50) was 5.35 in the assay on MCF7; 5.90 in the assay on HL-60; 5.15 in the assay on SW480; 5.14 in the assay with SMMC-7721; 5.14 with A549.
In the case of `CC(C)CCC[C@@H](C)[C@H]1CC[C@H]2[C@@H]3C[C@H](n4cc[n+](CC(=O)c5ccccc5)c4)[C@]45C[C@H]4CC[C@]5(C)[C@H]3CC[C@]12C`, the pIC50 was 5.16 in the assay with MCF7; 5.82 in the assay with HL-60; 5.22 with SW480; 5.89 with SMMC-7721; 5.14 in the assay with A549.
`C[C@@H]1CC[C@@]2(OC1)O[C@H]1C[C@H]3[C@@H]4CC=C5C[C@H](n6cc[n+](Cc7ccc8ccccc8c7)c6)CC[C@]5(C)[C@H]4CC[C@]3(C)[C@H]1[C@@H]2C`: the pIC50 is 5.96 with MCF7; 6.00 in the assay with HL-60; 5.80 in the assay with SW480; 5.94 with SMMC-7721; 5.95 with A549.
For the compound `CC(=O)O[C@H]1C(=O)[C@@]2(C)[C@H]([C@H](OC(=O)c3ccccc3)[C@]3(O)C[C@H](OC(=O)[C@H](O)[C@@H](NC(=O)c4ccccc4)c4ccccc4)C(C)=C1C3(C)C)[C@]1(OC(C)=O)CO[C@@H]1C[C@@H]2O` [PACLITAXEL], the pIC50 in the assay on MCF7, in the assay with HL-60, with SW480, in the assay with SMMC-7721 and with A549 was greater than 8.10 throughout.
Turning to `COc1ccc(C(=O)C[n+]2ccn([C@H]3CC[C@H]4[C@@H]5CC=C6C[C@@H](O)CC[C@]6(C)[C@H]5CC[C@]34C)c2)cc1`, the negative-log IC50 (pIC50) in the assay on MCF7, with HL-60, in the assay with SW480, in the assay on SMMC-7721 and in the assay on A549 was less than 4.70 in each case.
Consider `C[C@]12CC[C@H]3[C@@H](CC=C4C[C@@H](O)CC[C@@]43C)[C@@H]1CC[C@@H]2n1cc[n+](Cc2ccc3ccccc3c2)c1`, for which the pIC50 in the assay on MCF7 was 5.29; in the assay with HL-60, 5.57; with SW480, 5.19; with SMMC-7721, 5.36; in the assay with A549, 5.10.

These data come from ChEMBL document CHEMBL4340516, “Synthesis and antitumor activity of novel steroidal imidazolium salt derivatives” (Eur J Med Chem, 2019).
